Results published in article PMC11997881, “Comprehensive Characterization of Bruton’s Tyrosine Kinase Inhibitor Specificity, Potency, and Biological Effects: Insights into Covalent and Noncovalent Mechanistic Signatures” (ACS Pharmacology & Translational Science, 2025).
pKd: −log10 of the molar value. Entries after “also recorded” stand apart in the source; their conditions may differ. Where two headings read alike, the source gives them in different places.

Assays:
[1] = test system: 468 kinases/kinase domains; conditions: scanMAX at 1 μM; for selectivity: category by number of off-targets
Description: The compounds were diluted directly into the assays such that the final concentration of DMSO was 0.9%. No enzyme purification steps were performed on the protein extracts before adding them to the reaction mixture, and the protein extracts were diluted 10,000-fold in the final reaction mixture (the final DNA-tagged enzyme concentration was less than 0.1 nM). Binding assay mixtures were incubated at 25 °C with shaking for 1 h. […] The concentration of wild-type or mutant BTK in the eluates was then determined using quantitative PCR.

[2] = target: T1, TXK (Homo sapiens, UniProt P42681); test: scanMAX binding POC, TXK; conditions: 1 μM
T1 sequence (P42681 1-527): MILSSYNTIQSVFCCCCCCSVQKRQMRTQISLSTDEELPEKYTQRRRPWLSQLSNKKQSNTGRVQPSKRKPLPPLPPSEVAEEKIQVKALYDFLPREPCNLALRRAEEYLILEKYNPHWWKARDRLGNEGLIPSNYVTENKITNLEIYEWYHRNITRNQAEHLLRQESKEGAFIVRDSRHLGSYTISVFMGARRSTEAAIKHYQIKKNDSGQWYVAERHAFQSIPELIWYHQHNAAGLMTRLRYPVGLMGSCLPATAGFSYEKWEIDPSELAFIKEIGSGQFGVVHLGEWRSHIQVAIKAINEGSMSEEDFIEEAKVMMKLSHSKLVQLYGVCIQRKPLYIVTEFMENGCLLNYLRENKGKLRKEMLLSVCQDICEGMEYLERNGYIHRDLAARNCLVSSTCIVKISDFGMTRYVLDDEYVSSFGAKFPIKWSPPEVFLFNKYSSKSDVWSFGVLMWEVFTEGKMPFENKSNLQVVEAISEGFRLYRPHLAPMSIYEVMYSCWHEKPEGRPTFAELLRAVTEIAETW
Description: (§1) Comprehensive Characterization of Bruton’s Tyrosine Kinase Inhibitor Specificity, Potency, and
(§2) Biological Effects: Insights into Covalent and Non-Covalent Mechanistic Signatures
(§3) Antonia C. Darragh1, Andrew M. Hanna1, Justin H. Lipner2, Alastair J. King2, Nicole B. Servant1, Mirza Jahic1*
(§4) *To whom correspondence should be addressed: Mirza Jahic, e-mail address: Mirza.Jahic@discovery.eurofinsus.com
(§5) Supporting Table S1. Comparison of BTK inhibitor specificity to TEC family members. TEC family members are
(§6) Burton’s tyrosine kinase (BTK), tyrosine kinase expressed in hepatocellular carcinoma (TEC), bone marrow-
(§7) expressed kinase (BMX/ETK), and T cell-expressed kinase (TXK/RLK), and interleukin-2-inducible T cell kinase
(§8) A zero POC signifies that the compound

[3] = target: T2, wild-type BTK (Homo sapiens, UniProt Q06187); test: KdELECT competition binding, wild-type BTK
T2 construct: made in house; host or cells: transiently transfected HEK293 cells (unpurified extract)
T2 sequence (Q06187 whole entry): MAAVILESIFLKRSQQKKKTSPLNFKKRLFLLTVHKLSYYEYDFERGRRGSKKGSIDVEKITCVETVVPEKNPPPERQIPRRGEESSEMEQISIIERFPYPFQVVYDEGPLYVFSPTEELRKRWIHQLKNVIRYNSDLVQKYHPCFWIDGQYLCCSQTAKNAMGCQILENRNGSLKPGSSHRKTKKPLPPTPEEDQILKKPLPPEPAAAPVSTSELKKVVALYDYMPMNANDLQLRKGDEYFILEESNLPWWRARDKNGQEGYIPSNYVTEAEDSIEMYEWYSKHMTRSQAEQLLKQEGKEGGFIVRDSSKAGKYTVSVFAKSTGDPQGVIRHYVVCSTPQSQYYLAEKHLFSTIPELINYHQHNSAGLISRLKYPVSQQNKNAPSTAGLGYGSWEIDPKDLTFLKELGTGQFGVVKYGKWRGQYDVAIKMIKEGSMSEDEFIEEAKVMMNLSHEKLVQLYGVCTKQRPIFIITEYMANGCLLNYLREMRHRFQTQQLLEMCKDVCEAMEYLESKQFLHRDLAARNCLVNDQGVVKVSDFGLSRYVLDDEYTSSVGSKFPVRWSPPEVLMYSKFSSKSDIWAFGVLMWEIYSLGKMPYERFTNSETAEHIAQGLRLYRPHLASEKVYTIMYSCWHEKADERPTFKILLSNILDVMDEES
Description: Using Eurofins Discovery’s KdELECT Kinase Assay Panel (San Diego, CA), we measured the ATP-independent in vitro binding affinity of the aforementioned BTK inhibitors to wild-type BTK.
Protein extracts were harvested in M-PER extraction buffer (Pierce Biotechnology, Rockford, IL) supplemented with 150 mM NaCl, 10 mM Dithiothreitol (DTT), Protease Inhibitor Cocktail Complete (Roche Diagnostics GmbH, Mannheim, Germany), and Phosphatase Inhibitor Cocktail Set II (Merck KGaA, Darmstadt, Germany) following the manufacturer’s guidelines. The fusion protein was labeled with a DNA tag containing the NFκB binding site fused to an amplicon for qPCR readout, which was added directly to the expression extract.
Kds were calculated using a standard dose–response curve fitting of the data using the Hill equation: Response = Background + (Signal – Background)/(1 + (Kd ^Hill Slope/Dose^Hill Slope). The Hill Slope was set to −1. A nonlinear least-square fit using the Levenberg–Marquardt algorithm was employed for curve fitting.

[4] = target: T3, BMX (Homo sapiens, UniProt P51813); test: scanMAX binding POC, BMX; conditions: 1 μM
T3 sequence (P51813 1-675): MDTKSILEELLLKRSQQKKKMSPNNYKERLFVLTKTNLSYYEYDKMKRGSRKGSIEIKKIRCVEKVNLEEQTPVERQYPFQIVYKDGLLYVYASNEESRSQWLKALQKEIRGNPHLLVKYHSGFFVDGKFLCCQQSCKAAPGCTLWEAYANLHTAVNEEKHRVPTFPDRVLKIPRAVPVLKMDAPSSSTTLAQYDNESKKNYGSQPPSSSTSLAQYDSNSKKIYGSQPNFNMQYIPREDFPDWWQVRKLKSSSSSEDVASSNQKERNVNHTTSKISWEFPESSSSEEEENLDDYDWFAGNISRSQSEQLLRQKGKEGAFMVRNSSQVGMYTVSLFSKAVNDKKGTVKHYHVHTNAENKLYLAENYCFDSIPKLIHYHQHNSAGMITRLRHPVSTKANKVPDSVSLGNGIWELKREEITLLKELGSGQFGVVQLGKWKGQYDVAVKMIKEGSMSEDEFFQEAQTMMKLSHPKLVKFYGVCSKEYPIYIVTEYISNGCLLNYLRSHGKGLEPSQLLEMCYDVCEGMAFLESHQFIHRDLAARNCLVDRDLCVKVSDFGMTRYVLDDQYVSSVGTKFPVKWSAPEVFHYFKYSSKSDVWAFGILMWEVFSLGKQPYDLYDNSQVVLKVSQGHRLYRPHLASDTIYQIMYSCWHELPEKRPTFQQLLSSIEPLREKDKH
Description: as §1, §2, §3, §4, §5, §6, §7, §8

[5] = target: T4, BTK (Homo sapiens, UniProt Q06187); test: scanMAX binding POC, BTK; conditions: 1 μM; zero POC = competition comparable to positive control
T4 construct: host or cells: transiently transfected HEK293 cells
T4 sequence (Q06187 whole entry): as the sequence (Q06187 whole entry) above
Description: as §1, §2, §3, §4, §5, §6, §7, §8

[6] = target: BTK; conditions: wild-type BTK; average of literature values; read-out: average published Kd for BTK; cited from earlier work
[7] = test system: 12 human primary cell systems; test: BioMAP Diversity PLUS Panel; type: cell-based; conditions: for number of biological effects (biomarkers modulated) / number of effects in a non-B cell (non-BT) model: 1 μM; for immunomodulatory activities / tissue remodeling activities / inflammation-related activities / hemostasis/angiogenesis-related activities: biomarker level relative to vehicle control: ↑ increase, ↓ decrease; for inflammation-related activities: ↓↑ both; for hemostasis/angiogenesis-related activities: TF in the 3C model; for antiproliferative effects: cell types affected, concentrations (nM) in brackets; for detectable cytotoxicity: concentrations (nM): ibrutinib 3300, 1100, 370, 120, pirtobrutinib and fenebrutinib 1000, 330, 110, 37, spebrutinib 370, 120, 41, 14
Description: BioMAP Diversity PLUS Panel (Eurofins Discovery, St. Charles, MO) is composed of 12 human primary cell cultures or cocultures. The systems and stimuli have been described previously. Adherent cells were added to 96-well plates, allowed to reach confluence, and incubated for 1 h with the indicated BTK inhibitor or assay control, all dissolved in 0.1% DMSO. The cells were then stimulated with cytokines, agonists, or growth factors and cultured for a minimum of 24 h at 37 °C in 5% CO2. Assay controls included DMSO-only (vehicle control), nonstimulated conditions (negative control), and a positive control test agent (colchicine at 1 μM).
Cell proliferation and viability were measured using 0.1% sulforhodamine B (SRB, Sigma–Aldrich) after fixation with 10% TCA, and reading wells at 560 nm for adherent cells, and using alamarBlue reduction (Bio-Rad) for suspension cells. These biomarkers were previously described by Shah and colleagues.
For each biomarker, the value obtained from the BTK inhibitor-treated samples was divided by the average of 8 DMSO-only controls from the same plate, yielding a ratio that was then transformed to the log10 scale. […] For cytotoxicity, we considered a decrease in the SRB readout greater than 50% (<−0.3 on the log10 scale) significant and excluded from the analysis the corresponding concentrations. The acceptance criteria and quality assurance of the BioMAP experiments have been previously described.

[8] = ATP-independent in vitro binding, 25 °C, read-out: Kd for wild-type BTK
[9] = category by Kd for wild-type BTK, read-out: potency for BTK
[10] = wild-type BTK, average of N replicates, each in technical duplicate, read-out: average in-house Kd for BTK

Row | SMILES | selectivity [1] | TXK binding POC [2] | pKd [3, 8] | pKd [3, 9] | fold difference between in-house and published Kd's ([3]; wild-type BTK) | pKd [3, 10] | BMX binding POC [4] | BTK binding POC [5] | pKd [6] | number of biological effects (biomarkers modulated) [7] | number of effects in a non-B cell (non-BT) model [7] | immunomodulatory activities [7] | tissue remodeling activities [7] | inflammation-related activities [7] | hemostasis/angiogenesis-related activities [7] | antiproliferative effects [7] | detectable cytotoxicity [7] | other results
1 | C=CC(=O)N1CCC[C@@H](c2ccc(C(N)=O)c3[nH]ccc23)C1 [Elsubrutinib] | high (high (≤11 off-targets)) | 25% of control | 8.54 | 8.00 to 9.00 | 1.1 fold | 8.54 | 20% of control | 0.1% of control | 8.51 |  |  |  |  |  |  |  |  | 
2 | C[C@H]1CN(C2COC2)CCN1c1ccc(Nc2cc(-c3ccnc(N4CCn5c(cc6c5CC(C)(C)C6)C4=O)c3CO)cn(C)c2=O)nc1 [Fenebrutinib] |  | 53% of control |  |  |  |  |  |  |  | 8 | 3 | ↓ sIgG, sIL-2, sIL-6 | none | ↓ sTNFα, IL-1α | ↑ TF | B cells (1000, 330, 110, 37) | none | hemostasis/angiogenesis-related activities ([7]; listed as fenebrutinib): increase in the production of Tissue Factor (TF)
3 | O=C(c1ccc(Oc2ccccc2)cc1Cl)c1c[nH]c2ncnc(N[C@@H]3CC[C@@H](CO)OC3)c12 [Nemtabrutinib] |  | 2.7% of control |  |  |  |  | 8.5% of control | 0.6% of control | 7.34 |  |  |  |  |  |  |  |  | off-target hits ([1]; POC <35): 97
4 | C=CC(=O)Nc1cccc(Oc2nc(Nc3ccc(N4CCN(C)CC4)cc3)nc3ccoc23)c1 [Poseltinib] | moderate (moderate (12–50 off-targets)) | 4.4% of control | 8.82 | 8.00 to 9.00 |  | 8.82 | 12% of control | 0.1% of control |  |  |  |  |  |  |  |  |  | 

Second part, led by results:

Row | selectivity [1] | TXK binding POC [2] | pKd [3, 8] | pKd [3, 9] | fold difference between in-house and published Kd's ([3]; wild-type BTK) | pKd [3, 10] | BMX binding POC [4] | BTK binding POC [5] | SMILES | pKd [6] | number of biological effects (biomarkers modulated) [7] | number of effects in a non-B cell (non-BT) model [7] | immunomodulatory activities [7] | tissue remodeling activities [7] | inflammation-related activities [7] | hemostasis/angiogenesis-related activities [7] | antiproliferative effects [7] | detectable cytotoxicity [7] | other results
5 | moderate (moderate (12–50 off-targets)) | 11% of control | 9.09 | > 9.00 | 1.1 fold | 9.09 | 51% of control | 0% of control | COc1ccc(F)cc1C(=O)NCc1ccc(-c2nn([C@@H](C)C(F)(F)F)c(N)c2C(N)=O)cc1 [Pirtobrutinib] | 9.05 | 7 | 1 | ↓ sIL-17A, sIL-17F, sIL-2, sIL-6 | none | ↓ sTNFα, IL-1α | none | B cells (1000, 330, 110, 37) | none | 
6 |  | 4.5% of control |  |  |  |  | 10% of control | 0% of control | C=CC(=O)Nc1cccc(Nc2nc(Nc3ccc(OCCOC)cc3)ncc2F)c1 [Spebrutinib] |  |  |  | ↓ sIL-17A, sIL-2, sIL-6 | ↓ PAI-1, Col-I, Col-IV | ↓ sTNFα | none | B cells (370, 120, 41, 14); endothelial cells (370); CASM cells (370); fibroblast cells (370) | none | number of biological effects ([7]; 370 nM): 11; number of effects not in the BT model ([7]; 370 nM): 6; tissue remodeling activities ([7]; listed as spebrutinib): decreased the activity of tissue remodeling biomarkers; antiproliferative effects ([7]; listed as spebrutinib): antiproliferative effects in endothelial (3C), coronary artery smooth muscle (CASM), and fibroblast (HDF3CGF) cells; also recorded: antiproliferative activity in CASM cells
